Test results: patent US8058462B2, “Ligand modified poly oxo-hydroxy metal ion materials, their uses and processes for their preparation” (Medical Research Council, priority 2007, dated 2011)

Key:
Assay type in all cases: physicochemical
[1] = In vitro gastrointestinal digestion assay (simulated stomach and duodenum); details: pH 1.2
Protocol: An amount of the solid ligand-modified poly oxo-hydroxy ferric iron materials or control iron materials namely ferrous sulphate, ferric chloride, or unmodified ferric oxo-hydroxide, equivalent to 60 mg elemental iron, were added to a synthetic gastric (stomach) solution (50 mL of 2 g/L NaCl, 0.15 M HCl and 0.3 mg/mL porcine pepsin) and incubated at 37° C. for 30 minutes with radial shaking. […] The mixture was incubated at 37° C. for 60 min with radial shaking. Homogeneous Aliquots (1 mL) were collected at different time points during the process and centrifuged at 13,000 rpm for 10 minutes to separate the aggregate and aquated phases. The supernatant was analysed for iron content by ICPOES. […] The mass of remaining material (i.e. the wet pellet) was recorded. Concentrated HNO3 was added to this wet pellet and the new mass recorded. […] The starting amount of iron was calculated from the iron in the wet pellet plus the iron in the supernatant. To differentiate between soluble iron and aquated particulate iron in the supernatant, at each time point, this fraction was also ultrafiltered (Vivaspin 3,000 Da molecular weight cut-off polyethersulfone membrane, Sartorius Stedium Biotech GmbH, Goettingen, Germany) and again analysed by ICPOES. […]

[2] = Screening assay: formation (precipitation) of solid poly oxo-hydroxy iron in presence of ligand; details: ratios 1:1 to 1:5
Protocol: A series of dietary ligands was tested in a screening assay for their effects on the formation of solid ligand-modified poly oxo-hydroxy metal ion materials. Briefly, in a centrifuge tube, a fixed volume of stock solution of ferric iron (400 mM FeCl3 with 50 mM MOPS, pH 1.4) was mixed with varying volumes of a stock solution of ligand (400 mM with the exception of maltol which was 200 mM, plus MOPS at 50 mM and 0.9% NaCl) to obtain the desired metal:ligand ratio. The volumes were then equally adjusted to parity with a solution of 50 mM MOPS and 0.9% NaCl. […] A small aliquot was taken to confirm the starting iron concentration and then the pH was raised to ˜6.5 by drop-wise addition of concentrated NaOH to avoid high volume changes. After centrifugation at 2500 rpm for 10 minutes, an aliquot of supernatant was taken to analyse the iron remaining in solution. The remaining supernatant was discarded and a fixed volume of dissolution buffer at pH 6 (MOPS10 mM) or pH 4 (Acetic acid 10 mM) was then added to the wet solid of each tube and incubated overnight at room temperature. The tubes were then centrifuged (2500 rpm for 10 minutes) and an aliquot of supernatant taken to determine the iron that was disaggregated. The iron concentration in each aliquot was measured by ICPOES analysis.
Initially, the ligands were all tested using the screening assay described above at ratios of 1:1 to 1:5 and classified in three groups.

[3] = Screening assay: re-dissolution of the wet solid in pH 6 and pH 4 buffers; details: solid formed with the ligand
Protocol: A series of dietary ligands was tested in a screening assay for their effects on the formation of solid ligand-modified poly oxo-hydroxy metal ion materials. […] The volumes were then equally adjusted to parity with a solution of 50 mM MOPS and 0.9% NaCl. […] After centrifugation at 2500 rpm for 10 minutes, an aliquot of supernatant was taken to analyse the iron remaining in solution. […] The iron concentration in each aliquot was measured by ICPOES analysis.

| Ligand group by effect on the amount of solid material formed [2] | SMILES | other results |
| --- | --- | --- |
|  | O=S(=O)([O-])[O-].[Fe+2] [Ferrous sulphate, ferrous sulphate] | gastric disaggregation and dissolution profile (in words) [1]: disaggregates and dissolves very well |
| intermediate ligands | NC(=O)CC[C@H](N)C(=O)O [glutamine] |  |
| intermediate ligands | O=C(O)CC(O)C(=O)O (centres unmarked) [malic acid] |  |
|  | Cc1occc(=O)c1O [maltol] | re-dissolution of the iron at pH 6.0 (in words) [3]: did not promote any re-dissolution |
| intermediate ligands | O=C(O)C(O)C(O)C(=O)O (centres unmarked) [tartaric acid] |  |
